A short description of series [1]: Cell viability test in MTT. Format: cell-based, human. Particulars: human, SH-SY5Y neuroblastoma cells, 96 h of incubation, read-out: reduction of cell viability. On the procedure: (§1) Cells from SH-SY5Y human neuroblastomas were cultured in a DMEM medium containing 4.5 g·L^−1 glucose, 10% fetal calf serum, and 1% penicillin/streptomycin, and placed in an incubator at 37° C. with 7% CO2.
(§2) In the various experiments, the SH-SY5Y cells were seeded at a density of 4×10^4 cells/mL. 24 h after seeding, the cells were exposed to the various test compounds at 37° C. for 24 h, 48 h, 72 h, or 96 h.
(§3) This test consisted of rapidly measuring cellular metabolic activity in the presence of the study compound at different concentrations, in order to conduct a dose-response study. To do this, the tetrazolium salt MTT, 3-(4,5-dimethylthiazol-2-yl)-2,5-diphenyltetrazolium bromide (Amoroso et al., Biochim Biophys Acta, 1999, 1452(2):151-60), was placed in contact with the cells. MTT is reduced to formazan by living cells that have the capacity to metabolize it, unlike dead cells. To conduct this test, SH-SY5Y neuronal cells in 48-well plates were incubated for 24 h, 48 h, 72 h, and 96 h, with furosemide pyridinium at concentrations ranging from 0 to 1000 μM. Then MTT (0.5 mg/ml final) was added to each well and incubated at 37° C. for 2 h. At the end of incubation, after carefully removing the medium, DMSO was added (200 μL) to dissolve the cell membranes and the formazan crystals formed by the living cells. The toxicity of the molecule was evaluated by determining the amount of reduced MTT, doing so by measuring the absorbance at 550 nm as this value is proportional to the number of living cells. The results were expressed as a function of the values obtained for cells treated only with the solvent used to dissolve the compound of interest. To compare the toxicity of furosemide pyridinium to that of MPP+, the cells were incubated in the presence of MPP+ (0 to 1000 μM) for 6 h. The culture medium was replaced and the cells were incubated at 37° C. for an additional 24 h (no MPP+). Cell survival was measured at the end of these 24 hours of incubation as described above. When evaluating the effect of different concentrations of α-tocopherol (vitamin E), a membrane antioxidant, the cells were pretreated for 24 h with this antioxidant before being exposed to furosemide pyridinium at a concentration of 0.5 mM under the same experimental conditions as above.

For series [2], the system named is SH-SY5Y neuronal cells. The series is described as follows: Cell viability test in MTT. Format: cell-based, human. On the procedure:
as §1, §2, §3

In series [3] the test system is caspase-8. The experiment in a line: Caspase-8 activity (Ac-IETD-AFC cleavage) in SH-SY5Y cells. Format: cell-based, human. Conditions: 1 mM, 96 h. On the procedure: Measurement of the activities of the various caspases is based on the ability of the caspases to cleave specific fluorescent substrates: Ac-DEVD-AFC for caspase-3, Ac-IETD-AFC for caspase-8, or Ac-LEHD-AFC for caspase-9. SH-SY5Y neuronal cells were incubated in 48-well plates with either furosemide pyridinium (1 mM) for 96 h or with MPP+ (1 mM) for 6 h, then 24 h of incubation with no MPP+. After incubation, the cells were trypsinized, then rinsed with PBS and counted, then harvested in 100 μl of buffer containing 30 mM HEPES, 0.3 mM EDTA, 100 mM NaCl, 0.15% Triton X-100, and 10 mM DTT. The cell extract was then incubated for 1 hour at 37° C. with the specific substrate (100 μM) in a 96-well plate. Fluorescence was measured at λex400 nm and λem505 nm in a fluorescence detection plate reader (TECAN Infinite M1000) (Yue et al., supra). The results were expressed as percentages relative to the measured activity of cells cultured under the same conditions and not subjected to any treatment.

In series [4] the test system is α-synuclein phosphorylated at serine 129. The experiment in a line: Immunohistochemistry of Ser129-phosphorylated alpha-synuclein in exposed mice. Conditions: 20 mg/kg/day oral 7 days, 30 days after end of exposure. Format: in vivo, mouse. As for the experimental part: Swiss mice were divided into two groups of five animals (experimental and control). The experiments were performed independently two times. The mice of the experimental group were exposed to furosemide pyridinium for 7 days at a daily dose of 20 mg/kg. The furosemide pyridinium was administered orally in the drinking water. The mice were sacrificed 30 days after the end of the furosemide pyridinium treatment.
For this, the mice were anesthetized with pentobarbital (50 mg/Kg), then an intracardiac infusion of NaCl (0.9%) was administered, followed by fixation by an infusion of 4% paraformaldehyde in 0.1M phosphate buffer, pH 7.2. The brain was removed, placed in NaCl (0.9%) at 4° C., and frozen in Tissue Tek immersed in a cold isopentane bath. Coronal sections of eight microns were obtained using a cryostat and were processed for immunohistochemistry (labeling the tyrosine hydroxylase and the Ser129-phosphorylated alpha-synuclein).

Series [5] relates to rats. The series is described as follows: Lethality of 7-day oral administration in rats. Format: in vivo, rat. Particulars: daily dose of 20 mg/kg for seven days. On the procedure:
A platform for electrophysiological and behavioral monitoring of the rats was used. For this, a subcutaneous implant (Data Science) was placed in the rats which allowed the EEG to be recorded by telemetry, leaving the animal completely free to move about. The cage was equipped with a video camera (10 frames per second) and an infrared light to allow recordation of the animal's activity. The EEG and video sequences were recorded in sequences of 10 seconds, and a set of variables was calculated for each sequence. The use of dedicated software allowed integration of these variables over the entire recording to detect changes in the animal's activity, EEG, and circadian rhythms. Each animal served as its own control because it was recorded for 5 days prior to furosemide pyridinium administration. The solution of furosemide pyridinium (20 mg) was dissolved in dimethylsulfoxide (DMSO, 200 μl) and then diluted with water (50 ml). The solution was replaced every day and administered for 7 days in the drinking water at a dose of 20 mg/kg. The rats were then sacrificed 5 weeks after the last dose. The rats were anesthetized with pentobarbital and infused intracardially with saline ([…]), then fixed with 4% paraformaldehyde. After the infusion, the brain was removed and placed in NaCl (0.9%) at 4° C. The brain was frozen in Tissue Tek immersed in a cold isopentane bath. […]

pEC50: −log10 of the molar value.

On to `NS(=O)(=O)c1cc(C(=O)[O-])c(-[n+]2cccc(O)c2)cc1Cl` [furosemide pyridinium, 4-chloro-2-(3-hydroxypyridinium-1-yl)-5-sulfamoylbenzoate], for which the cytotoxicity at 96 h in series [1] was approximately 60%. Further, the “decrease in cell survival” value in series [2] (0.5 mM, 96 h) is “about 20%”. Moreover, the “effect on cell survival” value in series [2] (24 h of incubation, even at 1 mM) was “no significant effect”. For the same molecule, the negative-log EC50 (pEC50) in series [2] (Homo sapiens, 96 h of incubation, estimated, read-out: EC50 (cell survival)) was 3.01. Moreover, the “change in caspase-8 activity” value in series [3] was “did not induce significant changes”. The “α-synuclein phosphorylated at serine 129 in the cortexes” value in series [4] (cortex) was “no increase”. The “α-synuclein phosphorylated at serine 129 in the striata” value in series [4] (striatum) is reported as “sharp increase”. In addition, the lethality entry in series [5] is “not lethal”.

The values are drawn from US9744250B2, “Chemical model of a neurodegenerative disease, method for preparation and uses of same” (priority 2012, dated 2017).
